# Assay results published in patent US4056631A, “Method of combatting ticks” (Showa Denko K.K., priority 1973, dated 1977).
# Key:
# [1] = system: Haemaphysalis longicornis; assay: Test 2: killing of tick larvae of Haemaphysalis longicornis (immersion in emulsified aqueous solution); assay type: in vivo; conditions: immersed 2 to 5 minutes, 25° C. for 24 hours, read-out: Combatting Effect of Larvae of Haemaphysalis longicornis (mortality of unfed larvae)
# Procedure: (§1) Groups of 50 to 100 larvae of Boophilus microplus and Haemaphysalis longicornis of about two weeks old placed in paper packets were immeresed for 2 to 5 minutes in an emulsified aqueous solution of the test compounds of a concentration of 100 ppm, and the larvae were incubated at 25° C. for 24 hours according to the procedure described by Stone and Haydock (1962), and the rate of the larvae killed were determined. Each figure indicates mortality of unfed larvae after treatment with the test compounds.
# Boophilus microplus [2] = assay: Test 1: inhibition of oviposition by Boophilus microplus (acetone solution dropped on back of blood-fed females); conditions: Rhipicephalus microplus, topical, 336 h, read-out: Inhibition Ratio of Oviposition by Boophilus microplus
# From the text: (§3) One each of the adults of female Boophilus microplus or Haemaphysalis longicornis which had been allowed to suck blood fully was placed in a flat bottom test tube having a diameter of 10 millimeters and a depth of 35 millimeters. After rendering the chemicals to be tested into acetone solutions, the solutions were dropped to the back of the ticks in an amount corresponding to 110 gamma per one gram of body weight, using a micro syringe after which the acetone was evaporated. The test tube was then transferred to a desiccator containing a small portion of water where it was left standing at a constant temperature of 30° C., and the ticks were allowed to oviposit. Two weeks later, the amount of eggs laid per 1 gram of body weight was counted. Using this value and the amount of eggs laid in the case of the control group not treated with the chemicals, the rate of inhibition of oviposition was obtained as follows: [formula] where A is the number of eggs laid per gram of body weight of ticks of the group not treated with chemicals,
# (§4) B is the number of eggs laid per gram of body weight of ticks of the group treated with chemicals.
# (§5) The foregoing ratio was used to indicate the effectiveness of the chemicals tested.
# Boophilus microplus [3] = assay: Test 2: killing of tick larvae of Boophilus microplus (immersion in emulsified aqueous solution); assay type: in vivo; conditions: Rhipicephalus microplus, immersed 2 to 5 minutes, 25° C. for 24 hours, read-out: Combatting Effect of Larvae of Boophilus microplus (mortality of unfed larvae)
# Procedure: as §1
# [4] = system: Haemaphysalis longicornis; assay: Test 1: inhibition of oviposition by Haemaphysalis longicornis (acetone solution dropped on back of blood-fed females); conditions: topical, 336 h, read-out: Inhibition Ratio of Oviposition by Haemaphysalis longicornis
# From the text: as §3, §4, §5
# [5] = Test 4: acute oral toxicity in mice; parameters: species or system mice (male albino, strain ddY); conditions: mouse, in vivo, single dose, observed for a week
# Procedure: Acute oral toxicity was determined by using male albino mice strain ddY, 5 weeks old. The test compounds were administered orally once and the LD50 values were calculated after observing for a week.
# Boophilus microplus [6] = assay: Test 3: killing adults of Boophilus microplus (spray of diluted Recipe 1 emulsion); assay type: in vivo; parameters: key: (+): presence of deaths was observed; (-): there were no deaths; conditions: female adults
# Procedure: (§2) An emulsion was prepared in accordance with the foregoing Recipe 1, using as its active ingredient the compound No. 12. Several classes of spraying liquids having the concentrations indicated in Table 3 were prepared by diluting this emulsion with water. Ten female Boophilus microplus which had sucked blood fully were placed on a filter paper, and the liquid described above was sprayed onto the ticks with a glass sprayer in an amount such that the liquid would flow down the backs of the ticks. The ticks were then immediately transferred to a wet filter paper disposed in a Petri dish, and when the liquid on the backs of the ticks became somewhat dried, the dish was covered. The Petri dish was then held at a constant temperature of 30° C. for two weeks, after which the total amount of eggs laid was counted. During the time the Petri dish was held at a constant temperature, the inside of the Petri dish was maintained in a state of high humidity by dropping a small amount of water onto the filter paper daily. The effectiveness was judged by the rate of eggs laid by the several treated groups relative to the total eggs laid in the case of the ticks of the control group, which had been sprayed with only water. On the other hand, the effectiveness in killing the female adults was judged by observation of the presence or absence of deaths. The case where the presence of deaths was observed is indicated with the symbol (+), and the case where there were no deaths is indicated with the symbol (-).
# Boophilus microplus [7] = assay: Test 3: inhibiting oviposition by Boophilus microplus (spray of diluted Recipe 1 emulsion); assay type: in vivo; conditions: relative to water-sprayed control, two weeks, 30° C.
# Procedure: as §2
# mice = conditions: heretofore known tickicide; cited from earlier work
# [8] = concentration of compound 0.003%
# [9] = concentration of compound 0.01%
# [10] = concentration of compound 0.03%
SMILES,mortality at 100 ppm [1] [%],pest or weed control at 110 µg/g (Boophilus microplus [2]) [%],mortality at 100 ppm (Boophilus microplus [3]) [%],pest or weed control at 110 µg/g [4] [%],also measured
"CCN=C=NC(C)(C)c1ccccc1 [Compound 1, N-ethyl-N'-(2-phenyl-2-propyl)carbodiimide]",98,–,–,–,–
"CCCN=C=NC(C)(C)c1ccccc1 [Compound 2, N-n-propyl-N'-(2-phenyl-2-propyl)carbodiimide]",–,100,–,–,–
"CC(C)N=C=NC(C)(C)c1ccccc1 [Compound 3, N-iso-propyl-N'-(2-phenyl-2-propyl) carbodiimide]",–,–,96.4,–,–
"CC(C)(C)N=C=NC(C)(C)c1ccccc1 [Compound 4, N-tert-butyl-N'-(2-phenyl-2-propyl)carbodiimide]",80.3,–,–,–,–
"CCCCCN=C=NC(C)(C)c1ccccc1 [Compound 5, N-n-pentyl-N'-(2-phenyl-2-propyl)carbodiimide]",100,–,–,100,–
"CCCCCCN=C=NC(C)(C)c1ccccc1 [Compound 6, N-n-hexyl-N'-(2-phenyl-2-propyl)carbodiimide]",–,96.3,74.6,100,LD50 at 168 h [5]: 2000 mg/kg
"CCCCCCCN=C=NC(C)(C)c1ccccc1 [Compound 7, N-n-heptyl-N'-(2-phenyl-2-propyl)carbodiimide]",–,100,–,100,–
"CCCCCCCCN=C=NC(C)(C)c1ccccc1 [Compound 8, N-n-octyl-N'-(2-phenyl-2-propyl)carbodiimide]",–,100,68.5,100,LD50 at 168 h [5]: 6000 mg/kg
"CCCCC(CC)CN=C=NC(C)(C)c1ccccc1 (centres unmarked) [Compound 9, N-(2-ethyl-n-hexyl)-N'-(2-phenyl-2-propyl)carbodiimide]",100,–,–,100,LD50 at 168 h [5]: 7000 mg/kg
"CCCCCCCCCN=C=NC(C)(C)c1ccccc1 [Compound 10, N-n-nonyl-N'-(2-phenyl-2-propyl)carbodiimide]",–,100,–,100,–
"CCCCCCCCCCN=C=NC(C)(C)c1ccccc1 [Compound 11, N-n-decyl-N'-(2-phenyl-2-propyl)carbodiimide]",–,93.1,–,100,–
"CCCCCCCCCCCCN=C=NC(C)(C)c1ccccc1 [Compound 12, N-n-dodecyl-N'-(2-phenyl-2-propyl)carbodiimide]",82.2,100,86.5,100,Effectiveness in Killing Adults (Boophilus microplus [6]; [8]): (-); Effectiveness in Killing Adults (Boophilus microplus [6]; [9]): (-); Effectiveness in Killing Adults (Boophilus microplus [6]; [10]): (-); Effectiveness in Killing Adults (Boophilus microplus [6]; concentration of compound 0.1%): (+); Effectiveness in Killing Adults (Boophilus microplus [6]; concentration of compound 0.3%): (+); Effectiveness in Killing Adults (Boophilus microplus [6]; concentration of compound 1%): (+); LD50 at 168 h [5]: > 16000 mg/kg; Rate of Eggs Laid (Boophilus microplus [7]; [8]): 94.8%; Rate of Eggs Laid (Boophilus microplus [7]; [9]): 85.5%; Rate of Eggs Laid (Boophilus microplus [7]; [10]): 62.6%; Rate of Eggs Laid (Boophilus microplus [7]; concentration of compound 0.1%): 0%; Rate of Eggs Laid (Boophilus microplus [7]; concentration of compound 0.3%): 0%; Rate of Eggs Laid (Boophilus microplus [7]; concentration of compound 1%): 0%
"CCCCCCCCCCCCCCN=C=NC(C)(C)c1ccccc1 [Compound 13, N-n-myristyl-N'-(2-phenyl-2-propyl)carbodiimide]",–,85,92.8,100,–
"CCCCCCCCCCCCCCCCN=C=NC(C)(C)c1ccccc1 [Compound 14, N-n-cetyl-N'-(2-phenyl-2-propyl)carbodiimide]",80.3,–,–,96.6,–
"CCCCCCCCCCCCCCCCCCN=C=NC(C)(C)c1ccccc1 [Compound 15, N-n-stearyl-N'-(2-phenyl-2-propyl)carbodiimide]",–,–,–,98,–
"CC(C)(N=C=NC1CCCCC1)c1ccccc1 [Compound 16, N-cyclohexyl-N'-(2-phenyl-2-propyl)carbodiimide]",–,100,100,–,LD50 at 168 h [5]: 6000 mg/kg
"CC1CC(N=C=NC(C)(C)c2ccccc2)CC(C)(C)C1 (centres unmarked) [Compound 17, N-(3,3,5-trimethylcyclohexyl)-N'-(2-phenyl-2-propyl)carbodiimide]",100,100,100,100,LD50 at 168 h [5]: 11000 mg/kg
"CC(C)(N=C=Nc1ccccc1)c1ccccc1 [Compound 18, N-phenyl-N'-(2-phenyl-2-propyl)carbodiimide]",100,–,100,–,–
"Cc1ccc(N=C=NC(C)(C)c2ccccc2)cc1 [Compound 19, N-p-tolyl-N'-(2-phenyl-2-propyl)carbodiimide]",86.6,–,81.8,–,–
"COc1ccc(N=C=NC(C)(C)c2ccccc2)cc1 [Compound 20, N-p-methoxyphenyl-N-'-(2-phenyl-2-propyl)carbodiimide]",96.4,–,–,–,–
"COc1ccc(N=C=NC(C)(C)c2ccccc2)c(C)c1 [Compound 21, N-p-methoxy-o-tolyl-N'-(2-phenyl-2-propyl)carbodiimide]",100,–,–,–,–
"CC(C)(N=C=Nc1ccc(Cl)c(Cl)c1)c1ccccc1 [Compound 22, N-3,4-dichlorophenyl-N'-(2-phenyl-2-propyl)carbodiimide]",82.5,–,–,–,–
"CC(C)(N=C=NCc1ccccc1)c1ccccc1 [Compound 23, N-benzyl-N'-(2-phenyl-2-propyl)carbodiimide]",99.1,81.9,100,–,–
"CC(N=C=NC(C)(C)c1ccccc1)c1ccccc1 (stereo not drawn) [Compound 24, N-α-phenylethyl-N'-(2-phenyl-2-propyl)carbodiimide]",99.1,–,99.5,100,–
"CC(C)(N=C=NCCc1ccccc1)c1ccccc1 [Compound 25, N-β-phenylethyl-N'-(2-phenyl-2-propyl)carbodiimide]",100,100,91.2,100,–
"CC(C)(N=C=NCc1ccc(Cl)cc1)c1ccccc1 [Compound 26, N-p-chlorobenzyl-N'-(2-phenyl-2-propyl)carbodiimide]",86.4,–,81.9,–,–
"CC(C)(N=C=NCc1ccco1)c1ccccc1 [Compound 27, N-furfuryl-N'-(2-phenyl-2-propyl)carbodiimide]",91.1,–,77.8,–,–
"Cc1cc(Cl)ccc1N=CN(C)C [Control Chemical I, reference compound]",–,78.2,–,–,LD50 at 168 h [5]: 160 mg/kg
"CNC(=O)Oc1cccc2ccccc12 [Control Chemical II, reference compound]",–,27,–,–,–
"CCOP(=S)(OCC)Oc1nc(Cl)c(Cl)cc1Cl [Control Chemical III, O,O-diethyl O-(3,5,6-trichloro-2-pyridyl)phosphorothioate, reference compound]",–,–,–,–,LD50 for mice (mice): 70 mg/kg; LD50 at 168 h [5]: 70 mg/kg
